# Results taken from paper PMC8272121, “Synthesis and Evaluation of Chalcone-Quinoline Based Molecular Hybrids as Potential Anti-Malarial Agents” (Molecules, 2021).
# Where two headings read alike, the source gives them in different places.
# Experiments:
# [1] = test system: Chinese Hamster Ovary (CHO) mammalian cell line; assay: Cytotoxicity MTT assay on CHO cells; format: cell-based; conditions: for IC50: Cricetulus griseus, CHO, Chinese hamster ovarian cell line, MTT, 48 h; for SI (selectivity index): SI = IC50 (CHO)/IC50 (PfNF54)
# Method: All the synthesized molecular hybrids (6–27) were evaluated for in vitro antiplasmodial activity against the drug-sensitive strain (NF54) of P. falciparum and for cytotoxicity against the Chinese Hamster Ovary (CHO) mammalian cell line using emetine as a reference drug. Aqueous solubility was determined at pH 6.5 (Table 2). Cytotoxicity assay. […] The reference standard, emetine, was prepared to 2 mg/mL in distilled water while stock solutions of test compounds were prepared to 20 mg/mL in 100% DMSO with the highest concentration of solvent to which the cells were exposed having no measurable effect on the cell viability. The initial concentration of the compounds and control was 100 μg/mL, which was serially diluted in complete medium with 10-fold dilutions to give six concentrations, the lowest being 0.001 μg/mL. Plates were incubated for 48 h with 100 μL of drug and 100 μL of cell suspension in each well and developed afterward by adding 25 μL of sterile MTT (Thermo Fisher Scientific) to each well, followed by 4 h of incubation in the dark. The plates were then centrifuged; the medium was aspirated, and 100 μL of DMSO was added to dissolve crystals before reading the absorbance at 540 nm. Data were analyzed, and the sigmoidal dose-response was derived using GraphPad Prism v 4.0 software (La Jolla). All experiments were performed for at least three independent biological repeats, each with technical triplicates.
# [2] = test system: P. falciparum NF54 (drug-sensitive strain); assay: In vitro antiplasmodial assay (parasite lactate dehydrogenase), chloroquine-sensitive NF54 strain; format: cell-based, Plasmodium falciparum; conditions: sensitive (NF54) strain of P. falciparum, pLDH assay, 48 h, mean of ≥2 independent experiments, read-out: PfNF54 IC50
# Method: All the synthesized molecular hybrids (6–27) were evaluated for in vitro antiplasmodial activity against the drug-sensitive strain (NF54) of P. falciparum and for cytotoxicity against the Chinese Hamster Ovary (CHO) mammalian cell line using emetine as a reference drug. Aqueous solubility was determined at pH 6.5 (Table 2).
# In-vitro anti-plasmodium assay. Compounds were tested using parasite lactate dehydrogenase assay as a marker for parasite survival. The respective stock solutions of CQ diphosphate and test compounds were prepared by dissolving 2 mg/mL in distilled water (for CQ) and 100% DMSO for test compounds. The solutions were then stored at −20 °C, with further dilutions prepared on the day of the experiment. The cultures were synchronized in the ring stage as described previously using 15 mL of 5% (w/v) d-sorbitol in water. Synchronous cultures of PfNF54 (CQS) in the late trophozoite stage were prepared to 2% parasitemia and 2% hematocrit. […] Following incubation, 100 μL of MalStat reagent and 15 μL of resuspended culture were combined, followed by addition of 25 μL of nitro blue tetrazolium chloride (NBT). The plates were kept in the dark for about 10 min to fully develop, and absorbance was measured at 620 nm on a microplate reader. Raw data were exported to Microsoft Excel for dose-response analysis.
# [3] = Aqueous solubility, miniaturized shake flask method (HPLC-DAD); format: physicochemical; conditions: aqueous solution, aqueous buffer, thermodynamic from solid, pH 6.5, shake flask 20 h, 25 °C
# Method: All the synthesized molecular hybrids (6-27) were evaluated for in vitro antiplasmodial activity against the drug-sensitive strain (NF54) of P. falciparum and for cytotoxicity against the Chinese Hamster Ovary (CHO) mammalian cell line using emetine as a reference drug. Aqueous solubility was determined at pH 6.5 (Table 2). Aqueous solubility. Water solubility was analyzed using a miniaturized shake flask method. Ten millimolar stock solutions of each of the compounds were used to prepare calibration standards (10-220 μM) in DMSO. The same 10 mM stock solutions were accurately dispensed in duplicate into 96-well plates, and the DMSO, dried down ([…],90 min, 37 °C). Thereafter, the samples were reconstituted (200 μM) in an aqueous solution and shaken (20 h, 25 °C). The solutions were analyzed by means of HPLC-DAD (Agilent1200 Rapid Resolution HPLC with a diode array detector). Best fit calibration curves were constructed using the calibration standards, which were used to determine the aqueous samples' solubility.
Compound,melting point,IC50 [1],SI (selectivity index) [1],IC50 ([2]; Plasmodium falciparum),solubility at 20 h [3],IC50 [2]
"CC(=O)c1ccc(S(=O)(=O)NCCNc2ccnc3cc(Cl)ccc23)cc1 [Compound 4, 4-acetyl-N-(2-((7-chloroquinolin-4-yl)amino)ethyl)benzenesulfonamide]",200 to 204 °C,26300 nM,58.4,450 nM,200 µM,–
"CC(=O)c1ccc(S(=O)(=O)NCCCNc2ccnc3cc(Cl)ccc23)cc1 [Compound 5, 4-acetyl-N-(3-((7-chloroquinolin-4-yl)amino)propyl)benzenesulfonamide]",181 to 183 °C,> 50000 nM,>104,480 nM,< 5 µM,–
"O=C(C=Cc1ccccc1)c1ccc(S(=O)(=O)NCCCNc2ccnc3cc(Cl)ccc23)cc1 [Compound 6, N-(3-((7-chloroquinolin-4-yl)amino)propyl)-4-cinnamoylbenzenesulfonamide]",210 to 212 °C,> 50000 nM,>29,1670 nM,–,–
"Cc1ccc(/C=C/C(=O)c2ccc(S(=O)(=O)NCCCNc3ccnc4cc(Cl)ccc34)cc2)cc1 [Compound 7, (E)-N-(3-((7-chloroquinolin-4-yl)amino)propyl)-4-(3-(p-tolyl)acryloyl)benzenesulfonamide]",209 to 213 °C,25100 nM,67.8,370 nM,130 µM,–
"O=C(/C=C/c1ccc(F)cc1)c1ccc(S(=O)(=O)NCCCNc2ccnc3cc(Cl)ccc23)cc1 [Compound 9, (E)-N-(3-((7-chloroquinolin-4-yl)amino)propyl)-4-(3-(4-fluorophenyl)acryloyl)benzenesulfonamide]",216 to 218 °C,14600 nM,52.5,280 nM,< 5 µM,–
"O=C(/C=C/c1c(F)cccc1F)c1ccc(S(=O)(=O)NCCCNc2ccnc3cc(Cl)ccc23)cc1 [Compound 10, (E)-N-(3-((7-chloroquinolin-4-yl)amino)propyl)-4-(3-(2,6-difluorophenyl)acryloyl)benzenesulfonamide]",223 to 225 °C,27600 nM,51.1,540 nM,< 5 µM,–
"O=C(/C=C/c1ccc(F)c(F)c1)c1ccc(S(=O)(=O)NCCCNc2ccnc3cc(Cl)ccc23)cc1 [Compound 13, (E)-N-(3-((7-chloroquinolin-4-yl)amino)propyl)-4-(3-(3,4-difluorophenyl)acryloyl)benzenesulfonamide]",212 to 214 °C,> 300000 nM,>116,2580 nM,< 5 µM,–
"COc1ccc(/C=C/C(=O)c2ccc(S(=O)(=O)NCCCNc3ccnc4cc(Cl)ccc34)cc2)cc1OC [Compound 14, (E)-N-(3-((7-chloroquinolin-4-yl)amino)propyl)-4-(3-(3,4-dimethoxyphenyl)acryloyl)benzenesulfonamide]",222 to 224 °C,43400 nM,135.6,320 nM,–,–
"O=C(/C=C/c1ccccc1F)c1ccc(S(=O)(=O)NCCCNc2ccnc3cc(Cl)ccc23)cc1 [Compound 15, (E)-N-(3-((7-chloroquinolin-4-yl)amino)propyl)-4-(3-(2-fluorophenyl)acryloyl)benzenesulfonamide]",223 to 225 °C,45500 nM,52.9,860 nM,5 µM,–
"COc1cc(/C=C/C(=O)c2ccc(S(=O)(=O)NCCCNc3ccnc4cc(Cl)ccc34)cc2)cc(OC)c1OC [Compound 16, (E)-N-(3-((7-chloroquinolin-4-yl)amino)propyl)-4-(3-(3,4,5-trimethoxyphenyl)acryloyl)benzenesulfonamide]",197 to 200 °C,22600 nM,39.0,580 nM,15 µM,–
"COc1ccc(/C=C/C(=O)c2ccc(S(=O)(=O)NCCNc3ccnc4cc(Cl)ccc34)cc2)cc1 [Compound 17, (E)-N-(2-((7-chloroquinolin-4-yl)amino)ethyl)-4-(3-(4-methoxyphenyl)acryloyl)benzenesulfonamide]",222 to 225 °C,17500 nM,35.7,490 nM,185 µM,–
"O=C(/C=C/c1ccc(F)cc1F)c1ccc(S(=O)(=O)NCCCNc2ccnc3cc(Cl)ccc23)cc1 [Compound 18, (E)-N-(3-((7-chloroquinolin-4-yl)amino)propyl)-4-(3-(2,4-difluorophenyl)acryloyl)benzenesulfonamide]",216 to 218 °C,22400 nM,45.2,500 nM,130 µM,–
"COc1ccc(/C=C/C(=O)c2ccc(S(=O)(=O)NCCNc3ccnc4cc(Cl)ccc34)cc2)cc1OC [Compound 19, (E)-N-(2-((7-chloroquinolin-4-yl)amino)ethyl)-4-(3-(3,4-dimethoxyphenyl)acryloyl)benzenesulfonamide]",223 to 225 °C,45100 nM,136.7,330 nM,–,–
"O=C(/C=C/c1cc(F)ccc1F)c1ccc(S(=O)(=O)NCCCNc2ccnc3cc(Cl)ccc23)cc1 [Compound 20, (E)-N-(3-((7-chloroquinolin-4-yl)amino)propyl)-4-(3-(2,5-difluorophenyl)acryloyl)benzenesulfonamide]",219 to 221 °C,43700 nM,55.3,790 nM,–,–
"O=C(/C=C/c1ccco1)c1ccc(S(=O)(=O)NCCCNc2ccnc3cc(Cl)ccc23)cc1 [Compound 21, (E)-N-(3-((7-chloroquinolin-4-yl)amino)propyl)-4-(3-(furan-2-yl)acryloyl)benzenesulfonamide]",222 to 224 °C,> 50000 nM,>11,4450 nM,200 µM,–
"Cc1ccc(/C=C/C(=O)c2ccc(S(=O)(=O)NCCNc3ccnc4cc(Cl)ccc34)cc2)cc1 [Compound 22, (E)-N-(2-((7-chloroquinolin-4-yl)amino)ethyl)-4-(3-(p-tolyl)acryloyl)benzenesulfonamide]",184 to 187 °C,24900 nM,63.8,390 nM,190 µM,–
"O=C(/C=C/c1ccc(OC(F)(F)F)cc1)c1ccc(S(=O)(=O)NCCCNc2ccnc3cc(Cl)ccc23)cc1 [Compound 27, (E)-N-(3-((7-chloroquinolin-4-yl)amino)propyl)-4-(3-(4-(trifluoromethoxy)phenyl)acryloyl)benzenesulfonamide]",223 to 225 °C,44000 nM,86.3,510 nM,–,–
"CC[C@H]1CN2CCc3cc(OC)c(OC)cc3[C@@H]2C[C@@H]1C[C@H]1NCCc2cc(OC)c(OC)cc21 [Emetine, emetine, reference compound]",–,3.4 nM,–,–,–,–
(E)-N-(2-((7-chloroquinolin-4-yl)amino)ethyl)-4-(3-ferrocenyl)acryloyl)benzenesulfonamide [Compound 23],–,–,–,–,–,1530 nM
